Test results from ChEMBL document CHEMBL3352751, “7,9-Diaryl-1,6,8-trioxaspiro[4.5]dec-3-en-2-ones: readily accessible and highly potent anticancer compounds” (Bioorg Med Chem Lett, 2014).
In brackets after ≈: the same amount, converted by molar mass.

Columns and labels:
[1] = Anticancer activity against human NMC-797 cells after 48 hrs by viability assay; type: functional, cell-based; conditions: NMC-797, 48 h
[2] = Anticancer activity against human MJ cells after 48 hrs by viability assay; type: functional, cell-based
Escherichia coli = assay: Antimicrobial activity against Escherichia coli K-12 ATCC 25404 assessed as growth inhibition after 20 hrs by two-fold microdilution method; type: functional, organism-based; conditions: K-12 ATCC 25404, 20 h
[3] = tested on: Mycolicibacterium smegmatis; assay: Antimicrobial activity against Mycobacterium smegmatis strain MC2 155 ATCC 700084 assessed as growth inhibition after 20 hrs by two-fold microdilution method; type: functional, organism-based; conditions: MC2 155 ATCC 700084, 20 h
Bacillus subtilis = assay: Antimicrobial activity against Bacillus subtilis Marburg ATCC 6051 assessed as growth inhibition after 20 hrs by two-fold microdilution method; type: functional, organism-based; conditions: Marburg ATCC 6051, 20 h

SMILES | IC50 [1] [nM] | IC50 [2] [nM] | IC50 (Escherichia coli) [nM] | MIC95 (Escherichia coli) [µM] | IC50 [3] [nM] | MIC95 [3] [µM] | IC50 (Bacillus subtilis) [nM] | MIC95 (Bacillus subtilis) [µM]
O=C1C=C[C@]2(CCOCO2)O1 (racemic) | 8600 | > 20000 |  |  |  |  |  | 
O=C1C=C[C@]2(C[C@@H](c3ccccc3)O[C@@H](c3cccc([N+](=O)[O-])c3)O2)O1 (racemic) | 120 | 340 |  |  |  |  |  | 
O=C1C=C[C@]2(C[C@@H](c3cccc([N+](=O)[O-])c3)O[C@@H](c3cccc([N+](=O)[O-])c3)O2)O1 (racemic) | 47 | 170 | > 500000 | > 500 | > 500000 | > 500 | 216000 | 425 (≈ 169 µg/mL)
O=C1CC[C@]2(C[C@@H](c3cccc(C(F)(F)F)c3)O[C@@H](c3cccc(C(F)(F)F)c3)O2)O1 (racemic) | > 20000 | > 20000 |  |  |  |  |  | 
O=C1C=C[C@]2(C[C@@H](c3ccc([N+](=O)[O-])cc3)O[C@@H](c3ccc([N+](=O)[O-])cc3)O2)O1 (racemic) | 26 | 190 |  |  |  |  |  | 
O=C1C=C[C@]2(C[C@@H](c3cccc([N+](=O)[O-])c3)O[C@@H](c3ccccc3)O2)O1 (racemic) | 160 | 370 |  |  |  |  |  | 
O=C1C=C[C@]2(C[C@@H](c3coc([N+](=O)[O-])c3)O[C@@H](c3coc([N+](=O)[O-])c3)O2)O1 (racemic) | 340 | 820 |  |  |  |  |  | 
O=C1C=C[C@]2(C[C@@H](c3ccccc3[N+](=O)[O-])O[C@@H](c3ccccc3[N+](=O)[O-])O2)O1 (racemic) | 64 | 170 |  |  |  |  |  | 
O=C1C=C[C@]2(C[C@@H](c3cccc(Cl)c3)O[C@@H](c3cccc(Cl)c3)O2)O1 (racemic) | 82 | 260 | > 500000 | > 500 | > 500000 | > 500 | 408000 | > 500
O=C1C=C[C@]2(C[C@@H](c3ccccc3)O[C@@H](c3ccccc3)O2)O1 (racemic) | 900 | 1700 | > 500000 | > 500 | > 500000 | > 500 | 224000 | > 500
O=C1C=C[C@]2(C[C@@H](c3cccc(C(F)(F)F)c3)O[C@@H](c3cccc(C(F)(F)F)c3)O2)O1 (racemic) | 30 | 190 |  |  |  |  |  | 
O=C1C=C[C@]2(C[C@@H](c3c(F)c(F)c(F)c(F)c3F)O[C@@H](c3c(F)c(F)c(F)c(F)c3F)O2)O1 (racemic) | 570 | 2000 |  |  |  |  |  | 
CC1[C@@H](c2cccc([N+](=O)[O-])c2)O[C@@H](c2cccc([N+](=O)[O-])c2)O[C@@]12C=CC(=O)O2 (mixture of isomers) | 12000 | > 20000 |  |  |  |  |  | 
O=C1C=C[C@]2(C[C@@H](c3ccc4ccccc4c3[N+](=O)[O-])O[C@@H](c3ccc4ccccc4c3[N+](=O)[O-])O2)O1 (racemic) | 7600 | > 20000 |  |  |  |  |  | 
